# Source: PubChem BioAssay AID1552 (Sanford-Burnham Center for Chemical Genomics, 2009)
# The source made the active and inactive calls. The rule behind the calls is not given here.
# Biological target: Ubiquitin-conjugating enzyme E2 N (Homo sapiens) (UniProt P61088)
# Assay: NMR detection of UBE2N ligand binding – biophysical, purified protein (AID 1552)
# Details: NMR binding to purified UBE2N
# Ubiquitin-conjugating enzyme E2 N (Homo sapiens), sequence (P61088 whole entry, looked up): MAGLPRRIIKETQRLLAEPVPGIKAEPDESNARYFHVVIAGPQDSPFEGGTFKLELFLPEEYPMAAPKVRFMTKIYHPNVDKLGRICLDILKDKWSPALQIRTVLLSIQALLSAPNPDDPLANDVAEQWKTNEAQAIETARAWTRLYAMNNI
row,Compound,Kd
1,COc1c2occc2c(OC)c2c(=O)cc(C)oc12,> 4 mM (inactive)
2,CC1=CC(=O)NC2C=CC=CC12 (centres undefined),> 4 mM (inactive)
3,NC(=O)CSc1ccc(-c2ccccc2)nn1,> 4 mM (inactive)
4,Cc1ccc(-c2nc(N)n(C(=O)c3cccnc3)n2)cc1,> 4 mM (inactive)
5,CC(=O)Nc1ccncc1NC(C)=O,> 4 mM (inactive)
6,Cc1sc2nc(C)n(NC(N)=O)c(=O)c2c1C,> 4 mM (inactive)
7,CC(C)c1c(O)ccc2c1CCC1[C@@](C)(C=O)CCC[C@]21C (some centres undefined),> 4 mM (inactive)
8,Cc1cc(O)c2c(c1)C(=O)c1cccc(O)c1C2=O,> 4 mM (inactive)
9,COc1c(F)c(F)c(-c2csc(N)n2)c(F)c1F,> 4 mM (inactive)
10,Oc1ccc(-n2ccnc2)cc1,> 4 mM (inactive)
11,COc1ccc(-c2ccc(SCC(N)=O)nn2)cc1,> 4 mM (inactive)
12,CC(=O)O[C@@H]1CC2C(C)(C)C=CC(=O)[C@]2(C)C2CC[C@@]3(C)[C@H](c4ccoc4)OC(=O)C4OC43[C@@]21C (some centres undefined),> 4 mM (inactive)
13,OCc1cc(F)cc2c1OCOC2,> 4 mM (inactive)
14,Nc1ccc2c(c1)S(=O)(=O)C=C2,> 4 mM (inactive)
15,COc1ccc2c(C)cc(=O)oc2c1,> 4 mM (inactive)
16,Cc1cc(=O)[nH]c(N)n1,> 4 mM (inactive)
17,CCCNC(=O)CSc1nnc(C)s1,> 4 mM (inactive)
18,Cc1cc(O)c(NC(=O)c2ccco2)cc1C,> 4 mM (inactive)
19,CCc1sc(C(=O)NC)cc1Br,> 4 mM (inactive)
20,Cc1nc2ccc(NC(=O)N3CCOCC3)cc2s1,> 4 mM (inactive)
21,Cc1nc(-c2cccc(N)c2)cs1,> 4 mM (inactive)
22,O=C(Nc1nncs1)C1(c2ccccc2)CCCC1,> 4 mM (inactive)
23,O=C(O)c1ccnn1-c1ccccc1,> 4 mM (inactive)
24,N#Cc1sc2nc3c(c(-c4cccnc4)c2c1N)CCC3,> 4 mM (inactive)

row,Compound,Kd
1,Cc1noc(C)c1C(=O)NCc1cccs1,> 4 mM (inactive)
2,CC(C)=CCc1c2c(c3occ(-c4ccc(O)c(O)c4)c(=O)c3c1O)C=CC(C)(C)O2,> 4 mM (inactive)
3,CC(C)=CCOc1cc2oc(=O)ccc2cc1O,> 4 mM (inactive)
4,CSc1nc2nccc(N)n2n1,> 4 mM (inactive)
5,CNC(=O)C(=O)Nc1cccc(Cl)c1,> 4 mM (inactive)
6,Cc1ccc(C)c(C(=O)NCc2ccncc2)c1,> 4 mM (inactive)
7,NCCCCN,> 4 mM (inactive)
8,Cc1n[nH]c(=S)[nH]c1=O,> 4 mM (inactive)
9,COc1ccc2c(c1)CCCN2C(N)=O,> 4 mM (inactive)
10,Fc1ccc(CN2CCCNCC2)cc1,> 4 mM (inactive)
11,CC1(C)C2CC[C@]3(C)C(C(=O)C=C4[C@H]5C[C@@](C)(C(=O)O)CC[C@]5(C)CC[C@]43C)[C@@]2(C)CC[C@@H]1O (some centres undefined),> 4 mM (inactive)
12,CN1CCC(=NNC(=O)c2ccco2)CC1,> 4 mM (inactive)
13,c1ccc(-c2n[nH]c(-c3ccccn3)n2)nc1,> 4 mM (inactive)
14,Nc1cc(C(=O)O)ccc1N1CCCCCC1,> 4 mM (inactive)
15,Nc1nc(NCc2ccco2)nn1-c1ccccc1,> 4 mM (inactive)
16,Nc1cccc(NC(=O)c2cccs2)c1,> 4 mM (inactive)
17,CC1=CC(=O)C2C(C)(C)CCC[C@]2(C)[C@@]1(O)CCc1ccoc1 (some centres undefined),> 4 mM (inactive)
18,Nc1nc(O)c(C2=c3cc(Cl)ccc3=NC2=O)s1,> 4 mM (inactive)
19,O=C(O)c1cccnc1N1CCOCC1,> 4 mM (inactive)
20,COc1ccccc1NC(N)=S,> 4 mM (inactive)
21,Cc1cc(C(=O)Nc2ccon2)cs1,> 4 mM (inactive)
22,O=c1c2ccccc2nc2n1CCCCN2,> 4 mM (inactive)
23,NC(=O)c1ccc(SCC(=O)O)c([N+](=O)[O-])c1,> 4 mM (inactive)
24,Cn1[nH]c2nc3[nH]n(C)c(=O)c3c(-c3ccccc3)c2c1=O,> 4 mM (inactive)

row,Compound,Kd
1,Cn1c(=O)c2c(n(C)c1=O)=NC1(CCCCC1)N=2,> 4 mM (inactive)
2,O=C(O)c1ccc(Nc2nncc(=O)[nH]2)cc1,> 4 mM (inactive)
3,CC1(C)Cc2nc3[nH]c(=S)[nH]c(=O)c3cc2CO1,> 4 mM (inactive)
4,CC(=O)N1CN(C(C)=O)CN(C(C)=O)C1,> 4 mM (inactive)
5,CCCc1nc2ccccc2c2nc(N)nn12,> 4 mM (inactive)
6,Nc1nnc(-c2ccncc2)s1,> 4 mM (inactive)
7,Cc1nnc2sc(-c3csc4c3CCCC4)nn12,> 4 mM (inactive)
8,CC1=NNC(=O)C1CCc1ccncc1 (centres undefined),> 4 mM (inactive)
9,O=C(O)CCc1nc2ccccc2[nH]c1=O,> 4 mM (inactive)
10,O=C(O)C1CCN(C(=O)c2cccs2)CC1,> 4 mM (inactive)
11,Cn1c(CO)nc2ccccc21,> 4 mM (inactive)
12,Cc1cc(C(=O)N2CCN(c3ncccn3)CC2)c(C)o1,> 4 mM (inactive)
13,Nc1ncnc(Cl)c1[N+](=O)[O-],> 4 mM (inactive)
14,COc1cc2c(cc1O)CC1c3c(cc(O)c(OC)c3-2)CCN1C (centres undefined),> 4 mM (inactive)
15,Cn1cc(Cl)c(C(=O)Nc2ccc(F)cc2F)n1,> 4 mM (inactive)
16,Cc1ccc(S(=O)(=O)CC(=O)N(C)C)cc1,> 4 mM (inactive)
17,COc1ccc([C@@H]2CC(=O)c3c(O)cc(O[C@@H]4O[C@H](CO[C@H]5O[C@@H](C)[C@H](O)[C@@H](O)[C@H]5O)[C@@H](O)[C@H](O)[C@H]4O)cc3O2)cc1O,> 4 mM (inactive)
18,C[C@]12CC(=O)C3C(CC[C@@H]4C[C@H](O)CC[C@]34C)C1CC[C@]2(O)C(=O)CO (some centres undefined),> 4 mM (inactive)
19,O=C(O)CCSc1nc2ccccc2s1,> 4 mM (inactive)
20,Cc1ncoc1C(=O)Nc1ncc([N+](=O)[O-])s1,> 4 mM (inactive)
21,CCn1cnc(C(=O)NC)c1C(=O)NC,> 4 mM (inactive)
22,S=C(NC1=NCCS1)Nc1ccccc1,> 4 mM (inactive)
23,NCc1oc(-c2ccccc2)cc1C(=O)O,> 4 mM (inactive)
24,CC(=O)O[C@@H]1CC2C(C)(C)[C@@H](O)CC[C@]2(C)C2CC[C@@]3(C)[C@H](c4ccoc4)OC(=O)[C@H]4O[C@]43[C@@]21C (some centres undefined),> 4 mM (inactive)

row,Compound,Kd
1,O=C(NC(O)C(=O)c1ccccc1)c1ccco1 (centres undefined),> 4 mM (inactive)
2,O=[N+]([O-])c1cccc2c1nnn2C(CO)OCCO (centres undefined),> 4 mM (inactive)
3,N#CCc1nc2ccccc2s1,> 4 mM (inactive)
4,CC1(C)C=Cc2cc3ccc(=O)oc3cc2O1,> 4 mM (inactive)
5,C#CCCCCCCCCCCCC(O)CC(O)COC(C)=O (centres undefined),> 4 mM (inactive)
6,Cc1cc(NC(=O)c2ccc3c(c2)OCCO3)no1,> 4 mM (inactive)
7,CC(=O)Nc1nc(C)nc(-c2ccccc2)c1C(C)=O,> 4 mM (inactive)
8,CC(C)c1c(O)c(-c2cc3c(c(C(C)C)c2O)CCC2C(C)(C)CCC[C@]32C)cc2c1CCC1C(C)(C)CCC[C@]21C (some centres undefined),> 4 mM (inactive)
9,COC(=O)c1scc(C)c1N,> 4 mM (inactive)
10,Cc1nn2c(nc1=O)SCC2(O)c1ccccc1 (centres undefined),> 4 mM (inactive)
11,O=C(c1ccc(F)cc1)N1CCOCC1,> 4 mM (inactive)
12,Cc1ccc(NC(=O)c2ccccc2)s1,> 4 mM (inactive)
13,COc1cccc(C(=O)Nc2c(C)n[nH]c2C)c1,> 4 mM (inactive)
14,COC(=O)C[C@H]1C(C)(C)C(=O)[C@@H]2CC3C4=CC(=O)O[C@@H](c5ccoc5)[C@]4(C)CCC3C1(C)C2=O (some centres undefined),> 4 mM (inactive)
15,Cc1ccc(S(=O)(=O)CC(=O)N2CCCC2)cc1,> 4 mM (inactive)
16,O=c1[nH]c(O)c(C=NC2CC2)c(=O)[nH]1,> 4 mM (inactive)
17,COc1ccc2c(c1OC)C(=O)O[C@H]2[C@H]1c2cc3c(cc2CCN1C)OCO3,> 4 mM (inactive)
18,CN1CCC(NC(=O)c2cnccn2)CC1,> 4 mM (inactive)
19,Nc1ccc(-c2cn3c(n2)SCC3)cc1,> 4 mM (inactive)
20,CC1=CC(C)C(C(=O)O)C(C(=O)N2CCN(C)CC2)C1 (centres undefined),> 4 mM (inactive)
21,CC[C@H]1CN2CCC1C[C@@H]2[C@@H](O)c1ccnc2ccc(OC)cc12 (some centres undefined),> 4 mM (inactive)
22,CSc1nc(-c2ccco2)nn1S(C)(=O)=O,> 4 mM (inactive)
23,O=C(CSc1ccnc(=O)[nH]1)NCc1ccco1,> 4 mM (inactive)
24,Cc1cc(C(=O)Nn2cnnc2)cs1,> 4 mM (inactive)

row,Compound,Kd
1,Cc1c(C)[n+](=O)c(-c2cccs2)c(C)n1[O-],> 4 mM (inactive)
2,Cc1nc(N2CCOCC2)[nH]c(=O)c1C,> 4 mM (inactive)
3,CC1=NCCc2c1[nH]c1cc(O)ccc21,> 4 mM (inactive)
4,O=S(=O)(c1cccc(Cl)c1)N1CCCC1,> 4 mM (inactive)
5,O=c1[nH]cnc2c1nnn2Cc1ccccc1,> 4 mM (inactive)
6,O=S1(=O)CCC(NC(=S)Nc2ccccc2)C1 (centres undefined),> 4 mM (inactive)
7,Cc1cc(C(=O)N2CCC3(CC2)OCCO3)cs1,> 4 mM (inactive)
8,Nc1cc(F)ccc1-n1ccnc1,> 4 mM (inactive)
9,Nc1ccccc1C(=O)CC(N)C(=O)O (centres undefined),> 4 mM (inactive)
10,CN(C)C(=O)CCNS(=O)(=O)c1ccccc1,> 4 mM (inactive)
11,O=C1CSC(=Nc2ccc(F)cc2)N1,> 4 mM (inactive)
12,O=C(c1ccccc1)c1ccccc1C(=O)N1CCCC1,> 4 mM (inactive)
13,NC(=O)C(=O)Nc1nc(-c2ccccc2)cs1,> 4 mM (inactive)
14,CC(=O)Oc1ccc2c(c1)c(C(C)=O)c(C)n2C,> 4 mM (inactive)
15,Nc1ccc(-n2cncn2)cc1,> 4 mM (inactive)
16,O=C1C2CC=C(Cl)CC2C(=O)N1c1ccccc1O (centres undefined),> 4 mM (inactive)
17,O=[N+]([O-])c1cccc(-c2nnco2)c1,> 4 mM (inactive)
18,Cc1cc(O)cc(=O)o1,> 4 mM (inactive)
19,NC(=O)c1ccsc1N,> 4 mM (inactive)
20,NCc1csc(-c2ccccc2)n1,> 4 mM (inactive)
21,Nc1cccnc1N1CCOCC1,> 4 mM (inactive)
22,OCc1ccc2c(c1)OCCCO2,> 4 mM (inactive)
23,NC(=O)C1CCN(C(=S)c2ccccc2)CC1,> 4 mM (inactive)
